Data reported in patent publication US7211567B1, “Composition for preventing and treating type I allergy” (Sunstar, Inc., priority 1999, dated 2007).

Columns and labels:
[1] = system: passive cutaneous anaphylaxis (auricula swelling); assay: Suppression of passive cutaneous anaphylaxis (PCA) in mice; assay type: in vivo, ddY male mice; conditions: astragalin 1.25 mg/kg oral
Protocol: Ten 5-week-old ddY male mice were purchased from Japan SLC, and were reared at a room temperature of 23±3° C. and a humidity of 55±15%, with a 12 hour light-dark cycle (light period 7:00 to 19:00). The mice were kept 5 to a cage, and were fed a standard diet (Labo MR Stock, Nihon Nosan Kogyo K.K.) for a 7-day preliminary period, before being divided into a group to be administered astragalin and a control group each of 5 mice. A 0.025% (w/v) solution of astragalin in distilled water was forcedly orally administered (1.25 mg/5 ml/kg) to the astragalin-administered group using a metal stomach tube, while distilled water was forcedly orally administered (5 ml/kg) to the control group. One hour after the administration, 20 μl of an anti-DNP mouse IgE antibody (10 μg/ml) was intracutaneously injected into the right auricula and 20 μl of physiological saline into the left auricula of each mouse. 24 hours after the intracutaneous injections, 100 μl of DNP-BSA (1 mg/ml) was intravenously injected into the tail of each mouse. 15 minutes later, the thicknesses of the left and right auriculae of each mouse were measured three times using a thickness gauge (Ozaki Seisakusho K.K.). The auricula swelling rate was then calculated for each group using undermentioned equation 1, and the auricula swelling suppression rate was calculated using undermentioned equation 2. The measurement values were represented by the mean and standard deviation.

[2] = system: histamine release (CRA-1 anti human FcεRI stimulated human whole blood cells); assay: Histamine release suppression test using human whole blood; assay type: cell-based; conditions: for histamine release suppression rate: N=3, mean ± SD
Protocol: Human whole blood was collected from healthy volunteers and heparin was added thereto. A blood sample was prepared by adding 6 parts by weight of a histamine release buffer (Immunotech) to 1 part by weight of the whole blood to which the heparin had been added. 200 μl of the blood sample and 100 μl of a histamine release buffer comprising astragalin (33 μM), kaempferol (33 μM) or epinephrine (1638 μM or 4917 μM) were placed in an Eppendorf tube and allowed to stand for 30 minutes while cooling in ice (final concentration: 11 μM for astragalin, 11 μM for kaempferol, 546 μM or 1639 μM for epinephrine).
Centrifugal separation (3000 rpm, 5 minutes, 4° C.) was then carried out and the supernatant removed, and the resulting cells were again put into 300 μl of a histamine release buffer. 4.5 μl of 1 mg/ml CRA-1 (an anti human FcεRI receptor antibody, Cosmo Bio) was next added to the mixture (final CRA-1 concentration 15 μg/ml), and incubation was carried out for 30 minutes at 37° C. After centrifugation (3000 rpm, 10 minutes, 4° C.), the amount of histamine in the supernatant was measured using a histamine EIA kit (Immunotech). The histamine release suppression rate (%) was then calculated using undermentioned equation 3 from histamine amounts calculated from a calibration curve. The measurements were carried out with N=3, and the measurement values were represented by the mean and standard deviation.
[formula] A: Amount of histamine released from cells to which astragalin/kaempferol/epinephrine added (n mole) B: Amount of histamine released from untreated cells (n mole) C: Amount of histamine released from cells to which only CRA-1 added (n mole)

[3] = system: atopic dermatitis in NC/Nga mice; assay: Intake test using NC/Nga mice: dermal symptoms of atopic dermatitis; assay type: in vivo, NC/Nga male mice; conditions: 0.0007% astragalin in diet ad libitum; end of experiment (13 weeks old); 5 mice; control 4 of 5 developed symptoms
Protocol: NC/Nga mice are conventional grade animals, and atopic dermatitis model mice that spontaneously develop atopic dermatitis. Moreover, the development of atopy is accompanied by a rise in serum IgE level.
(§1) Ten 4-week-old NC/Nga male mice were purchased from Japan SLC, and were reared at a room temperature of 23±3° C. and a humidity of 55±15%, with a 12 hour light-dark cycle (light period 7:00 to 19:00). The mice were kept 5 to a cage, and were fed a standard diet (Labo MR Stock, Nihon Nosan Kogyo K.K.) for a 7-day preliminary period, before being divided into a control group and a group to be administered astragalin, each of 5 mice. The mice were then allowed to eat the following diets ad libitum. Control group: A diet prepared by adding a corn starch (0.0007%, Oriental Enzyme K.K.) to MF powder (Oriental Enzyme K.K.) and then mixing in a mixer.
(§2) Astragalin-administered group: A diet prepared by adding astragalin (0.0007%) to the MF powder and then mixing in a mixer.
The following judgement criteria were used.
Slight inflammation or scratch wounds: 1
Medium degree inflammation, scratch wounds or bleeding: 2
Severe inflammation, scratch wounds or bleeding: 3
For each mouse, the judgement was carried out for each of the head, the shoulders and the back, and then the highest of the three scores was taken as the ‘maximum score’. […]

serum IgE level = assay: Intake test using NC/Nga mice: serum IgE level; assay type: in vivo, NC/Nga male mice; conditions: 0.0007% astragalin in diet; end of experiment (13 weeks); control 6,018 ng/ml; difference statistically significant
Protocol: as §1, §2
The serum IgE level was measured at the start of the experiment and then at 2-week intervals until the end of the experiment by collecting blood from the orbit and then using a mouse IgE measurement kit ‘Yamasa’ EIA (lot 702). The serum IgE level measurement values were represented by the mean and standard deviation. The differences between the two groups were tested for statistical significance using t-tests, and a significance level of 5% or less was determined significant.

[4] = system: IL-4 mRNA expression in human basophilic leukemia cell line (KU812); assay: Expression of IL-4 mRNA using RT-PCR in KU812 cells; assay type: cell-based; conditions: A23187 ionophore 1 μM
Protocol: A human basophilic leukemia cell line (KU812) was cultured at 37° C. with 5% CO2 in an RPMI 1640 culture medium (Gibco) containing 10% bovine fetal serum (treated at 56° C. for 30 minutes). The KU812 cells (5×10^5 cells/ml) were then stimulated using astragalin (0, 1.1, 3.3 or 11 μM) and an A23187 ionophore (1 μM). After washing, the total RNA was collected using RNAzol (Biotex, USA). 500 ng of the collected total RNA was mixed with an RT mixture (Perkin Elmer Cetus, USA), and then incubation was carried out for 5 minutes at 99° C. followed by 60 minutes at 37° C. After the RT products had been obtained, PCR amplification was carried out using an IL-4-specific primer and β-actin-specific primer. The products were subjected to migration in 2% agarose gel and stained with ethidium bromide, and then the amount of expression was evaluated.

pollinosis symptoms = assay: Pollinosis symptom scores in volunteers drinking astragalin solution; assay type: in vivo, human volunteers; conditions: for Impediment to daily life total point score / Nasal congestion total point score / Nasal discharge total point score / Sneezing total point score: mean of 13 volunteers
Protocol: Thirteen volunteers who had previously experienced pollinosis were asked to drink 240 μg of astragalin (in the form of 1 ml of concentrated persimmon leaf extract) dissolved in a suitable amount (50 to 200 ml) of water or hot water twice a day (morning and evening) starting 14 days before the start of the pollen season and ending 14 days after the start of the pollen season.
Sneezing, nasal discharge, nasal congestion and extent of impediment to daily life were evaluated using a points system both during the 7 days immediately before stopping drinking the astragalin solution (‘while drinking’ below) and during the 7 days immediately after stopping drinking the astragalin solution (‘after stopping drinking’ below).
For sneezing, 1 point was recorded for each sneeze. For nasal discharge, 1 point was recorded each time the nose was blown. […] For extent of impediment to daily life, 3 points were recorded when one could not settle down to work at all, 2 points were recorded when there was some impediment to working, 1 point was recorded when there was little impediment to working, and 0 points were recorded when there was no impediment to working; points were recorded daily.
The total point scores for the 7-day ‘while drinking’ period and the 7-day ‘after stopping drinking’ period are shown in Table 1 below as mean values over the 13 volunteers.

[5] = after stopping drinking (7 days immediately after)
[6] = while drinking (7 days before stopping), 240 μg astragalin twice a day, p 0.003

With `O=c1c(O[C@@H]2O[C@H](CO)[C@@H](O)[C@H](O)[C@H]2O)c(-c2ccc(O)cc2)oc2cc(O)cc(O)c12` [astragalin, kaempferol-3-glucoside] the right auricula thickness ([1]; anti-DNP IgE-injected right auricula, 15 min after DNP-BSA i.v., mean ± SD) was 0.286±0.017 mm, the “auricula swelling suppression rate” value ([1]; versus distilled water control) was 33% and the auricula swelling rate ([1]; control 27.2±12.5%) was 18.2±5.0%. The left auricula thickness ([1]; saline-injected left auricula, 15 min after DNP-BSA i.v., mean ± SD) was 0.242±0.013 mm, the “histamine release suppression rate” value ([2]; 11 μM final concentration) was 50±7% and the “histamine release suppression action about the same as that of epinephrine of x times the concentration” value ([2]; astragalin 11 μM versus epinephrine 1639 μM) was roughly 150 times. For the same compound, the “development of atopic dermatitis symptoms” value [3] was “not one mouse had developed symptoms”, the “serum IgE level” value (serum IgE level) was 1,225 ng/ml and the IL-4 expression ([4]; astragalin 3.3 μM or 11 μM) was “particularly marked effects”. For the same compound, the IL-4 expression ([4]; astragalin 1.1, 3.3 or 11 μM) was “suppressed”, the “Impediment to daily life total point score” value (pollinosis symptoms; [5]) was 10 ± 10 points and the “Nasal congestion total point score” value (pollinosis symptoms; [5]) was 13 ± 11 points. The “Nasal discharge total point score” value (pollinosis symptoms; [5]) was 62 ± 83 points, the “Sneezing total point score” value (pollinosis symptoms; [5]) was 68 ± 79 points and the rough skin condition (pollinosis symptoms; two of the volunteers with rough skin before treatment, while drinking the astragalin solution) was “improved”. For the same compound, the “Sneezing total point score” value (pollinosis symptoms; while drinking (7 days before stopping), 240 μg astragalin twice a day as concentrated persimmon leaf extract, p 0.001) was 23 ± 21 points, the “Nasal congestion total point score” value (pollinosis symptoms; [6]) was 3 ± 3 points and the “Nasal discharge total point score” value (pollinosis symptoms; [6]) was 21 ± 26 points. For the same compound, the “Impediment to daily life total point score” value (pollinosis symptoms; while drinking (7 days before stopping), 240 μg astragalin twice a day, p 0.005) was 1 ± 2 points.

`CNC[C@H](O)c1ccc(O)c(O)c1` [epinephrine] was tested, and the “histamine release suppression rate” value ([2]; 546 μM final concentration) was 31±3% and the “histamine release suppression rate” value ([2]; 1639 μM final concentration) was 55±4%.

In the case of `O=c1c(O)c(-c2ccc(O)cc2)oc2cc(O)cc(O)c12` [kaempferol], the “histamine release suppression rate” value ([2]; 11 μM final concentration) is reported as 31±9%.
